The METLIN SMRT retention time set (Domingo-Almenara et al. 2019)

experiment: gradient 5% acetonitrile 3 min, to 50% in 2 min, to 85% in 15 min, held 3 min, 100 µL/min; details: column: Zorbax Extend-C18 2.1 x 50 mm; eluents: water / acetonitrile, 0.1% formic acid
Method in brief: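 Pure standards were run in mixtures of ~100 molecules by HPLC coupled to a quadrupole time-of-flight mass spectrometer. The column was a Zorbax Extend-C18 (2.1 × 50 mm, 1.8 μm) at 100 μL/min, with water and acetonitrile each containing 0.1% formic acid, in positive and negative ionization mode. Dead and dwell volumes were 40 μL and 900 μL. Retention time was taken from computationally picked adduct peaks, each manually inspected, with data collected over 3 months.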

SMILES	RP-LC retention time [s]
CCOc1ccc(NC(=O)c2cccc(-n3cnnn3)c2)cc1	737
O=C(Nc1ccc(F)cc1F)C1(CCO)CCN(Cc2ccccc2)C1 (centres undefined)	620
COc1ccc(NC(=O)NC2CCN(c3cc(N4CCCC4)cnn3)C2)c(C)c1 (centres undefined)	626
COCCN1C(=O)CCc2cc(NS(=O)(=O)c3ccc(OC)c(OC)c3)ccc21	569
Cc1onc(-c2ccc(Br)cc2)c1C(=O)NCc1cccs1	988
Cn1nnc2ccc(-c3noc(-c4cccc(F)c4)n3)cc21	1010
O=C(c1ccc2ncccc2c1)N1C[C@@H](CO)[C@H](c2ccccn2)C1	543
COc1ccccc1N1CCN(C(=O)C2CCCN(c3ncnc4c3nc3n4CCCCC3)C2)CC1 (centres undefined)	766
COc1cc(-c2noc(Cn3ncn4nc(-c5cccs5)cc4c3=O)n2)cc(OC)c1OC	983
Cc1sc(-c2cc(C(F)(F)F)on2)cc1S(=O)(=O)NCCC1=CCCCC1	1320
O=C(NCc1ccco1)C1CCCN(c2ccc(=O)n(-c3cccc(Cl)c3)n2)C1 (centres undefined)	808
COc1ccc(C(=O)N2CCn3c(C)nnc3C2)cc1F	593
CCOC(=O)c1cc(C2CC2)nc2c1c(=O)n(Cc1cccc(C(F)(F)F)c1)c(=O)n2C	1270
O=C(CCn1nnc2cc(S(=O)(=O)N3CCCCC3)ccc21)N1CCN(c2ccccn2)CC1	665
Cc1ccccc1N1CCN(C(=O)C2CC(=O)N(CCc3ccccc3)C2)CC1 (centres undefined)	725
COc1ccc2nc(C(=O)NCc3cccc(Cl)c3)cn2n1	846
CCc1ccc(S(=O)(=O)N2CCC(n3c(-c4ccco4)nc4cccnc43)C2)cc1 (centres undefined)	972
COc1ccc(C)cc1NC(=O)C1CCN(S(C)(=O)=O)c2cc(Cl)ccc2O1 (centres undefined)	1100
Cc1cccc(NC(=O)C2CCCN2S(=O)(=O)c2cc3c(cc2Cl)NC(=O)CO3)c1C (centres undefined)	891
Cc1ccc(-c2csc(NC(=O)COc3ccc(Cl)cc3Cl)n2)cc1	1180
O=C(NC1CC1)c1ccc(-c2cccs2)nc1	716
Cc1cccc(-c2noc(CSc3nccn3-c3ccccc3)n2)c1	969

SMILES	RP-LC retention time [s]
O=C(N1[C@H]2CC[C@@H]1c1cnc(-c3ccc(F)cc3)nc1C2)C1(c2ccccc2)CC1	1070
Cc1c(CN2CCN(C(=O)[C@H](C)O)CC2)sc2c(N3CCOCC3)nc(-c3cnc(N)nc3)nc12	612
Cn1cc(-c2nc(C(=O)NCc3ccc(F)cc3Cl)cs2)c2cccnc21	1010
Cc1cccc(NC(=O)N2CCCC2C(=O)N(C)C)c1 (centres undefined)	643
CCOC(=O)N1CCN(c2ncc(S(=O)(=O)c3ccc(C(C)C)cc3)c(N)n2)CC1	1030
O=C(NC1CCN(c2cc(-c3ccc(F)cc3)[nH]n2)C1)c1cccc(Br)c1 (centres undefined)	806
CCc1ccc(-c2nc(C3CC(=O)N(c4ccc(F)cc4)C3)no2)cc1 (centres undefined)	1110
CCNC(=O)N1CCC(c2noc(-c3cnccn3)n2)C1 (centres undefined)	608
O=C(Nc1nccs1)c1csc(Nc2ccccc2)n1	815
COc1ccc(NC(=O)Cn2c(C(F)(F)F)nc3cc4c(cc32)OCCO4)cc1	829
Cc1cccn2cc(C(=O)NCCC(C)C)nc12	712
NS(=O)(=O)c1ccc(CCNCc2ccc(-c3ccccc3F)o2)cc1	643
Nc1nc(N)c2ncn(-c3ccccc3)c2n1	584
CSc1ccc(CNC(=O)C2CCCN(c3ccc(=O)n(-c4cccc(F)c4)n3)C2)cc1 (centres undefined)	888
Clc1ccc(Cc2nnc3ccc(Cl)nn23)cc1	823
Cc1ccc2c(c1)N(S(C)(=O)=O)CCC(C(=O)Nc1ccccc1C(C)C)O2 (centres undefined)	1020
COc1ccc(N2CCN(S(=O)(=O)c3cc(-c4nnc(C5CC5)o4)co3)CC2)cc1	909
Cc1csc(-c2ccc(N3CCN(C(=O)c4cc(Cl)ccc4F)CC3)nc2)n1	943
Cc1ccc(Cn2c(=O)c(N3CCC(NC(=O)NC(C)C)CC3)nc3cccnc32)cc1	986
CC(=O)Nc1nonc1-c1nnc(SCC(=O)Nc2nc(-c3ccccc3)cs2)n1C	833
O=C(Cc1ccc(NC(=O)c2ncc(-c3ccccc3)o2)cc1)NCc1cccs1	866
Clc1cccc(-c2nnc(Cc3nc(-c4ccccc4)no3)o2)c1	1070
